The values below come from patent US10973748B2, “Compositions and methods for lightening skin and reducing hyperpigmentation” (Versitech Limited, priority 2016, dated 2021).

One series concerns melan-a cells. Nature of the series: Cell survival rate (CCK-8 assay). The series is classed as cell-based, murine. The following applies: 72 hrs, concentration equal to or lower than 20 μM. The procedure:
Murine melan-a cells (an immortalized, non-tumorigenic murine melanocyte cell line) were obtained from Chinese University of Hong Kong. Cells were cultured in RPMI 1640 medium. Culture medium was supplemented with 10% FBS and 1% penicillin-streptomycin and the cells were incubated at 37° C. in 5% CO2. Melan-a cells were incubated with tetradecanoyl phorbol acetate (TPA) at a concentration of 200 nM. The tested chemical agents (e.g., 6-CEPN and Kojic acid) were individually dissolved as a stock solution at a concentration of 100 mM in 100% dimethyl sulfoxide (DMSO). The stock solution was diluted using culture medium to the desired final concentrations immediately prior to use.
Melan-a cells (10,000 cells/well) were plated in 100 μL 96-well multidishes for at least 24 hours (hrs) prior to use. The cells were treated with serial concentrations of tested chemicals for 72 hrs. After the indicated incubation time, cells were washed three times using PBS and then treated with CCK-8 solution (0.5 mg/mL) for 1.5 hours. Absorbance was measured at 490 nm using Victor X4 Multilabel Plate Reader (PerkinElmer, Mass., USA). Values were expressed as the mean cell viability as a percentage of that of the vehicle DMSO (0.1% final volume)-treated cultures.

The target of series [1] is T1, tyrosinase (Mus musculus, UniProt P11344).
T1 construct: endogenous in cells; host or cells: melan-a cells
T1 sequence (P11344 19-533): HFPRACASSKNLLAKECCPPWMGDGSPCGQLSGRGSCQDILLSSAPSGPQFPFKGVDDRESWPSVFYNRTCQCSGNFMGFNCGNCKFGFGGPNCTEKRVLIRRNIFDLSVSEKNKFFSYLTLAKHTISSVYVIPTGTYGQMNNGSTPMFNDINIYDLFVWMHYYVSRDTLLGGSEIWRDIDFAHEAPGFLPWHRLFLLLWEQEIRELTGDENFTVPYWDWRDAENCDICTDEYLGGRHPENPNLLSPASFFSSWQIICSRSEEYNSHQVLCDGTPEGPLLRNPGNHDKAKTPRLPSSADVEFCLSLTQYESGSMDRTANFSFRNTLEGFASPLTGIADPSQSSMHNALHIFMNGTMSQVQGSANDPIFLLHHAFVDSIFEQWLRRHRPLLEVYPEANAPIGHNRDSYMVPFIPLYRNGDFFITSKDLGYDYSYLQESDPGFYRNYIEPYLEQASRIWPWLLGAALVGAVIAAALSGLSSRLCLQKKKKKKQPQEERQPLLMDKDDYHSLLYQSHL
Nature of the series: Cellular tyrosinase activity assay (L-DOPA oxidation in cell lysates). The format is cell-based, murine. The following applies: melan-a cells, α-MSH, 72 hrs; 6-CEPN 10 or 20 μM, 8-CEPQ 2.5 or 5 μM. The procedure:
Cellular tyrosinase activity was determined by measuring the oxidation of L-3,4-dihydroxyphenylalanine (L-DOPA) to dopachrome in cell lysates. Melan-a cells (1.5×10^5 cells/well) were plated in 1 mL of culture medium in a 24-well multidishes for at least 24 hrs prior to use. The cells were treated with α-MSH (1 μM) alone or with α-MSH plus different concentrations of testing agents for 72 hrs. The cells were washed with cold PBS and lysed in 900 μL of PBS with 1% Triton X-100. After being freeze-thawed at −80° C. for 30 min followed by 25° C. for 30 min, 100 μL of 10 mM L-DOPA was then added to each well. Following incubation at 37° C. for 1 hr, the absorbance of the agents was measured at 490 nm using Victor X4 Multilabel Plate Reader (PerkinElmer, Mass., USA).

The subject of series [2] is tyrosinase. Nature of the series: Western blotting of tyrosinase protein level in melan-a cells. The series is classed as cell-based, murine. The settings on record: α-MSH, 72 hrs, 20 μM. The procedure:
(§1) Melan-a cells (3×10^5 cells/well) were seeded in 4 mL of culture medium in a 6-well plate for at least 24 hrs prior to use. The cells were treated with α-MSH (1 μM) alone, α-MSH plus plus different concentration of agents for 72 hrs. The cells were washed with cold PBS and then lysed in 100 μL of RIPA buffer containing 1% Nonidet P-40, 0.1% sodium dodecylsulfate, 0.5% sodium deoxycholate, and 2% protease inhibitor at 4° C. Samples were centrifuged at 14,000 rpm for 30 mins at 4° C., and total proteins in the supernatant were separated. 10 μg of denatured proteins were loaded per lane, and separated by 10% SDS-PAGE gel. Proteins were then transferred to Immobilon-P Transfer Membranes (Millipore Co., Bed-ford, Mass.) by semidry transfer. Membranes were incubated with primary antibodies specific for Tyrosinase, tyrosinase-related protein-1 (TRP1), tyrosinase-related protein-2 (TRP2), and microphthalmia-associated transcription factor (MITF). The blots were subsequently washed and incubated with the appropriate secondary antibodies. Immunoreactive protein bands were visualized with enhanced chemiluminescence western blotting detection reagents and quantified using an ODYSSEY Fc Imaging system. The amounts of protein loaded were normalized against a control protein, β-actin.

Series [3] relates to tyrosinase-related protein-2 (TRP2). Put plainly: Western blotting of TRP-2 protein level in melan-a cells. The format is cell-based, murine. The following applies: α-MSH, 72 hrs, 20 μM. The procedure: as §1
The test system of series [4] is MelanoDerm (Mel-300-A) epidermal equivalents containing melanocytes. Nature of the series: Tissue viability of artificial skin model (CCK-8). The format is cell-based, human. The settings on record: whole treatment period (14 days), rapamycin 2.5 μM, 6-CEPN 10 μM, 8-CEPQ 5 μM. The procedure: (§2) Epidermal equivalents containing melanocytes (Mel-300-A) were maintained according to the manufacturer's instructions. Mel-300-A tissue was cultured in EPI-100-NMM-113 medium for 14 days. Agents were dissolved in tissue culture medium and changed every other day. The test agents were either (1) rapamycin (2.5 μM), as the positive control in depigmentation, (2) 6-CEPN (10 μM), or (3) 8-CEPQ (5 μM). The concentration of rapamycin used was lower than 6-CEPN and 8-CEPQ, as rapamycin is toxic to cells at higher concentration. Pigmentation of these skin equivalents was compared against treatment of cells with a culture medium only (denoted as “vehicle”). Tissue viability was assessed on day 14 by CCK-8 assay as described in Example 1. On day 14, single tissues were harvested and photographed. The L* parameter was used to evaluate skin lightening or darkening. The lighter the skin, the greater the L* value. ΔL* value was measured by a Chroma Meter CR400 (Konica Minolta) for an evaluation of lightening as a function of time. Three tissues for each treatment were frozen for the Solvable Melanin assay (Bessou-Touya et al., “Chimeric human epidermal reconstructs to study the role of melanocytes and keratinocytes in pigmentation and photoprotection.” Journal of investigative dermatology 111(6):1103-1108 (1998)). Additional tissues were fixed by 10% formanin. For melanin staining in paraffin-embedded tissues, Fontana-Masson silver staining was used as previously detailed (Barbosa et al., “A simple and economical modification of the Masson-Fontana method for staining melanin granules and enterochromaffin cells.” Stain technology 59(4):193-196 (1984)).

The test system is the same in series [5]. Nature of the series: Fontana-Masson silver staining of artificial skin model. The following applies: day 14, rapamycin 2.5 μM, 6-CEPN 10 μM. The series is classed as cell-based, human. How it is done: as §2

`O=C1C[C@@H](c2ccc(O)cc2)Oc2cc(O)c(/C=C/c3ccccc3)c(O)c21` [6-CEPN, 6-C-(E-phenylethenyl)-naringenin]: the cell survival rate entry in the series on melan-a cells was “no significant decrease”. Also, on tyrosinase [1], the tyrosinase activity entry is reported as “significant inhibition on tyrosinase activity in a dose-dependent manner”. Moreover, in the series with tyrosinase [2], the “protein level of tyrosinase” value is given as “significantly suppressed”. In addition, the “protein level of TRP-2” value in series [3] is recorded as “significantly suppressed”. For the same compound, the “cytotoxicity (tissue viability)” value in series [4] is reported as “without significant cytotoxicity”. Also, in series [5], the “melanin content and distribution (Fontana Masson staining)” value is “significant decrease in the melanin content and distribution”; the “thickness of basal layer of tissue” value is “without causing reduction in the thickness of basal layer of tissue”.
